According to patent US11440923B2, “Substituted macrocyclic indole derivatives” (Bayer Aktiengesellschaft, priority 2017, dated 2022):
pIC50: −log10 of the molar value. Counter-ions that a name gives are not always drawn. Like-named read-outs stand apart in the source and are kept apart here. Each block holds one compound with its values, some of them ahead of it.

Key:
Format in all cases: cell-based
A2780 cells = assay: Antiproliferation assay A2780 (Assay 7)
Procedure: (§1) Assessment of the Anti-Proliferative Effect of Compounds in Different Cell Lines
(§2) The impact of compounds on the proliferation of different cell lines was assessed using the CellTiter-Glo® Luminescent Cell Viability reagent from Promega (G7573).
(§3) In parallel, cells were plated in a reference (day 0) plate for time zero determination. Cells were incubated in a humidified incubator at 37° C. overnight.
(§4) Rim wells were excluded. The cells were incubated for 72 h hours in a humidified incubator at 37° C. The day 0 plate was measured by adding 30 μL/well of CTG solution (CellTiter-Glo® Luminescent Cell Viability reagent, Promega G7573) to time zero wells in the reference plate followed by a 10 minutes incubation and luminescence reading at 0.1 ms. using the PHERAstar FS microplate reader (BMG Labtech).
(§5) After 72 h incubation, the treated plates were measured in the same way as the day 0 plate mentioned above. The Bella DRC Master Sheet was used to calculate IC50s, with CI=day 0 values and C0=DMSO control values.

SUDHL10 cells = assay: Antiproliferation assay SUDHL10 (Assay 7); conditions: 72 h, CellTiter-Glo, read-out: Antiproli SUDHL10 IC50 (median)
Procedure: as §1, §2, §3, §4, §5

SK-BR-3 cells = assay: Antiproliferation assay SK-BR-3 (Assay 7); conditions: Homo sapiens, read-out: Antiproli SK-BR-3 IC50 median
Procedure: as §1, §2, §3, §4, §5

PA-1 cells = assay: Antiproliferation assay PA-1 (Assay 7); conditions: Homo sapiens, read-out: Antiproli PA-1 IC50 median
Procedure: as §1, §2, §3, §4, §5

A-431 cells = assay: Antiproliferation assay A-431 (Assay 7); conditions: Homo sapiens, read-out: Antiproli A-431 IC50 median
Procedure: as §1, §2, §3, §4, §5

[1] = Homo sapiens, A2780, 72 h, CellTiter-Glo, read-out: Antiproli A2780 IC50 median
[2] = Homo sapiens, A2780, 72 h, read-out: Antiproli A2780 IC50 median, 72 h, CellTiter-Glo

- pIC50 (A2780 cells; [1]): 4.71
- pIC50 (SUDHL10 cells; Homo sapiens, SU-DHL10): 5.15
SMILES: Cc1c2c(nn1C)C(C)OCCCCn1c(C(=O)O)c(CCCOc3cccc4ccccc34)c3cccc-2c31 (racemic) [Example 1, (rac)-2,3,15-trimethyl-7-[3-(naphthalen-1-yloxy)propyl]-2,10,11,12,13,15-hexahydropyrazolo[4′,3′:9,10][1,6]oxazacycloundecino[8,7,6-hi]indole-8-carboxylic Acid (Mixture of Stereoisomers)]

- pIC50 (SUDHL10 cells; Homo sapiens, SU-DHL10): 6.80
SMILES: Cc1c2c(nn1C)C(CCN1CCOCC1)OCCCCn1c(C(=O)O)c(CCCOc3cccc4ccccc34)c3ccc(F)c-2c31 (racemic) [Example 7, (rac)-4-fluoro-2,3-dimethyl-15-[2-(morpholin-4-yl)ethyl]-7-[3-(naphthalen-1-yloxy)propyl]-2,10,11,12,13,15-hexahydropyrazolo[4′,3′:9,10][1,6]oxazacycloundecino[8,7,6-hi]indole-8-carboxylic Acid]

SMILES: CCc1c2c(nn1C)C(CCN1CCOCC1)OCCCCn1c(C(=O)O)c(CCCOc3cccc4ccccc34)c3ccc(F)c-2c31 (racemic) [Example 10, (rac)-3-ethyl-4-fluoro-2-methyl-15-[2-(morpholin-4-yl)ethyl]-7-[3-(naphthalen-1-yloxy)propyl]-2,10,11,12,13,15-hexahydropyrazolo[4′,3′:9,10][1,6]oxazacycloundecino[8,7,6-hi]indole-8-carboxylic Acid]
- pIC50 (A2780 cells; [1]): 5.46
- pIC50 (SUDHL10 cells; Homo sapiens, SU-DHL10): 6.85

SMILES: Cc1c2c(nn1C)C(CCN1CCOCC1)OCCCCn1c(C(=O)O)c(CCCOc3cccc4cc(F)ccc34)c3ccc(Cl)c-2c31 (racemic) [Example 16, (rac)-4-chloro-7-{3-[(6-fluoronaphthalen-1-yl)oxy]propyl}-2,3-dimethyl-15-[2-(morpholin-4-yl)ethyl]-2,10,11,12,13,15-hexahydropyrazolo[4′,3′:9,10][1,6]oxazacycloundecino[8,7,6-hi]indole-8-carboxylic Acid]
- pIC50 (SK-BR-3 cells; SK-BR-3, 72 h, CellTiter-Glo): 6.97

- pIC50 (A-431 cells; A-431, 72 h, CellTiter-Glo): 6.90
SMILES: CCc1c2c(nn1C)C(CCN1CC(F)(F)C1)OCCCCn1c(C(=O)O)c(CCCOc3cccc4cc(F)ccc34)c3ccc(Cl)c-2c31 (single isomer, unassigned; (+)) [Example 78, (+)-4-chloro-15-[2-(3,3-difluoroazetidin-1-yl)ethyl]-3-ethyl-7-{3-[(6-fluoronaphthalen-1-yl)oxy]propyl}-2-methyl-2,10,11,12,13,15-hexahydropyrazolo[4′,3′:9,10][1,6]oxazacycloundecino[8,7,6-hi]indole-8-carboxylic Acid—N-ethylethanamine Salt]
- pIC50 (PA-1 cells; PA-1, 72 h, CellTiter-Glo): 6.90

SMILES: CCc1c2c(nn1C)C(CCN1CCOCC1)OCCCCn1c(C(=O)O)c(CCCOc3cccc4ccccc34)c3ccc(F)c-2c31 (single isomer, unassigned; enantiomer 1) [Example 11, 3-ethyl-4-fluoro-2-methyl-15-[2-(morpholin-4-yl)ethyl]-7-{3-[(naphthalen-1-yl)oxy]propyl}-2,10,11,12,13,15-hexahydropyrazolo[4′,3′:9,10][1,6]oxazacycloundecino[8,7,6-hi]indole-8-carboxylic Acid—N-ethylethanamine Salt (Enantiomer 1)]
- pIC50 (A2780 cells; [2]): 6.11

SMILES: Cc1c2c(nn1C)C(CCN1CCOCC1)OCCCCn1c(C(=O)O)c(CCCOc3cccc4cc(F)ccc34)c3ccc(F)c-2c31 (single isomer, unassigned; enantiomer 1) [Example 20, 4-fluoro-7-{3-[(6-fluoronaphthalen-1-yl)oxy]propyl}-2,3-dimethyl-15-[2-(morpholin-4-yl)ethyl]-2,10,11,12,13,15-hexahydropyrazolo[4′,3′:9,10][1,6]oxazacycloundecino[8,7,6-hi]indole-8-carboxylic Acid—N-ethylethanamine (Enantiomer 1)]
- pIC50 (SK-BR-3 cells; SK-BR-3, 72 h): 6.76
- pIC50 (PA-1 cells; PA-1, 72 h): 6.52
- pIC50 (A-431 cells; A-431, 72 h): 6.34

- pIC50 (A-431 cells; A-431, 72 h, CellTiter-Glo): 6.47
SMILES: CCc1c2c(nn1C)C(CCN1CCOCC1)OCCCCn1c(C(=O)O)c(CCCOc3cccc4cc(F)ccc34)c3ccc(F)c-2c31 (single isomer, unassigned; enantiomer 1) [Example 50, (+)-3-ethyl-4-fluoro-7-{3-[(6-fluoronaphthalen-1-yl)oxy]propyl}-2-methyl-15-[2-(morpholin-4-yl)ethyl]-2,10,11,12,13,15-hexahydropyrazolo[4′,3′:9,10][1,6]oxazacycloundecino[8,7,6-hi]indole-8-carboxylic Acid (Enantiomer 1)]
- pIC50 (PA-1 cells; PA-1, 72 h, CellTiter-Glo): 6.65

SMILES: CCc1c2c(nn1C)C(CCC1CCOCC1)OCCCCn1c(C(=O)O)c(CCCOc3cccc4cc(F)ccc34)c3ccc(Cl)c-2c31 (single isomer, unassigned; enantiomer 1) [Example 63, (+)-4-chloro-3-ethyl-7-{3-[(6-fluoronaphthalen-1-yl)oxy]propyl}-2-methyl-15-[2-(oxan-4-yl)ethyl]-2,10,11,12,13,15-hexahydropyrazolo[4′,3′:9,10][1,6]oxazacycloundecino[8,7,6-hi]indole-8-carboxylic Acid—N-ethylethanamine Salt (Enantiomer 1)]
- pIC50 (PA-1 cells; PA-1, 72 h): 6.69
- pIC50 (A-431 cells; A-431, 72 h): 6.57

- pIC50 (A-431 cells; A-431, 72 h, CellTiter-Glo): 6.87
SMILES: CCc1c2c(nn1C)C(CCC(C)(C)O)OCCCCn1c(C(=O)O)c(CCCOc3cccc4cc(F)ccc34)c3ccc(Cl)c-2c31 (single isomer, unassigned; enantiomer 1) [Example 75, (+)-4-chloro-3-ethyl-7-{3-[(6-fluoronaphthalen-1-yl)oxy]propyl}-15-(3-hydroxy-3-methylbutyl)-2-methyl-2,10,11,12,13,15-hexahydropyrazolo[4′,3′:9,10][1,6]oxazacycloundecino[8,7,6-hi]indole-8-carboxylic Acid—N-ethylethanamine Salt (Enantiomer 1)]
- pIC50 (PA-1 cells; PA-1, 72 h, CellTiter-Glo): 6.93

- pIC50 (A2780 cells; read-out: Antiproli A2780 IC50 median, 72 h, CellTiter-Glo, listed as 02): 4.64
- pIC50 (SUDHL10 cells): 5.54
SMILES: Cc1c2c(nn1C)C(C)OCCCCn1c(C(=O)O)c(CCCOc3cccc4ccccc34)c3cccc-2c31 (single isomer, unassigned; stereoisomer 1) [Example 2, 2,3,15-trimethyl-7-[3-(naphthalen-1-yloxy)propyl]-2,10,11,12,13,15-hexahydropyrazolo[4′,3′:9,10][1,6]oxazacycloundecino[8,7,6-hi]indole-8-carboxylic Acid Trifluoroacetic Acid Salt (Stereoisomer 1)]

- pIC50 (A2780 cells; [2]): 4.52
- pIC50 (SUDHL10 cells): 5.15
SMILES: Cc1c2c(nn1C)C(C)OCCCCn1c(C(=O)O)c(CCCOc3cccc4ccccc34)c3cccc-2c31 (single isomer, unassigned; stereoisomer 2) [Example 3, 2,3,15-trimethyl-7-[3-(naphthalen-1-yloxy)propyl]-2,10,11,12,13,15-hexahydropyrazolo[4′,3′:9,10][1,6]oxazacycloundecino[8,7,6-hi]indole-8-carboxylic Acid Trifluoroacetic Acid Salt (Stereoisomer 2)]
